Results taken from patent publication US9314541B2, “In vivo imaging method for cancer” (GE Healthcare Limited, priority 2010, dated 2016).
Blank lines part the entries; values can stand above or below the compound they belong to.

Key:
PBR = PBR (Homo sapiens, UniProt P30536); conditions: in vivo; cited from earlier work
[1] = cited from earlier work
[2] = compared with 11C-PK11195; cited from earlier work
[3] = In vivo biodistribution method; parameters: species or system Wistar rats; conditions: for OB:Str 30 min: ratio olfactory bulb to striatum, 30 min after injection
Experimental: Imaging agents of the invention were tested in an in vivo biodistribution model.
Adult male Wistar rats (200-300 g) were injected with 1-3 MBq of test compound via the lateral tail vein. At 2, 10, 30 or 60 min (n=3) after injection, rats were euthanised and tissues or fluids were sampled for radioactive measurement on a gamma counter.

Wistar rat heart PBR = target: T1, Wistar rat heart PBR (Rattus norvegicus, UniProt P16257); test: In vitro potency assay: competition against 0.3 nM [3H]PK-11195 for binding to PBR; conditions: non-radioactive analogues tested; vs 0.3 nM [3H]PK-11195; 50 mM Tris-HCl pH 7.4, 10 mM MgCl2, 15 minutes at 25° C.
T1 construct: from tissue; host or cells: Wistar rat heart
Experimental: Non-radioactive analogues of in vivo imaging agents of the invention were tested.
The reaction was carried out in 50 mM Tris-HCl, pH 7.4 10 mM MgCl2 for 15 minutes at 25° C.

Chain of PBR (P30536 whole entry, species assumed): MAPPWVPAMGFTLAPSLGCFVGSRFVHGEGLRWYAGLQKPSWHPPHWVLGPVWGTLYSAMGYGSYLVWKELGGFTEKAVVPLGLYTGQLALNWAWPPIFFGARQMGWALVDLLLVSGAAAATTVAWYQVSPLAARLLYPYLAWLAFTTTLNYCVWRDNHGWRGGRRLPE

OB:Str 30 min [3]: 3.40
Structure (SMILES): CN(Cc1ccccc1)C(=O)C1CCCc2c1c1ccccc1n2CC[18F] (stereo not shown) [compound 7]

Ki (Wistar rat heart PBR): 2.12 nM | OB:Str 30 min [3]: 3.50
Structure (SMILES): CCN(CC)C(=O)C1CC(C)Cc2c1c1ccccc1n2CC[18F] (stereo not shown) [compound 11]

More lines, now with the values behind:

Structure (SMILES): CC[C@H](C)N([11CH3])C(=O)c1cc2ccccc2c(-c2ccccc2Cl)n1 [[^11C]PK11195]
brain uptake (PBR): relatively low and variable | levels of non-specific binding (PBR): relatively high | plasma protein binding [1]: high and variable

Structure (SMILES): CCN(CC)C(=O)Cc1c(-c2ccc(OCC[18F])cc2)nn2c(C)cc(C)nc12 [^18F-DPA-714]
bioavailability [2]: increased

Structure (SMILES): O=C(C1CCCc2c1c1ccccc1n2CC[18F])N1CCCCCC1 (stereo not shown) [compound 9]
Brain 2 min (% ID/g) ([3]; brain, 2 min after injection via lateral tail vein, 1-3 MBq, adult male Wistar rats): 0.56 % ID/g | OB 30 min (% ID/g) ([3]; olfactory bulb, 30 min after injection via lateral tail vein, adult male Wistar rats): 0.41 % ID/g | OB:Str 30 min [3]: 3.72
